Laboratory results: PubChem BioAssay (NCI)
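In this assay, cells in 96-well plates receive the compound at five concentrations for 48 hours. Endpoints are linearly interpolated between the surrounding concentrations. At the GI50, growth is halved. The concentration for full growth arrest is given as TGI.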

Columns and labels:
Test in all cases: DTP human tumour cell line panel, 48 h
786-0 renal = system: 786-0 renal
COLO 205 colon = system: COLO 205 colon
HL-60(TB) leukemia = system: HL-60(TB) leukemia
HT29 colon = system: HT29 colon
IGROV1 ovarian = system: IGROV1 ovarian
PC-3 prostate = system: PC-3 prostate
SF-539 CNS = system: SF-539 CNS
SK-MEL-2 melanoma = system: SK-MEL-2 melanoma
EKVX NSCLC = system: EKVX NSCLC
RXF 393 renal = system: RXF 393 renal

Compound | GI50 (786-0 renal) | TGI (786-0 renal) | GI50 (COLO 205 colon) | TGI (COLO 205 colon) | GI50 (HL-60(TB) leukemia) | TGI (HL-60(TB) leukemia) | GI50 (HT29 colon) | TGI (HT29 colon) | GI50 (IGROV1 ovarian) | TGI (IGROV1 ovarian) | GI50 (PC-3 prostate) | TGI (PC-3 prostate) | GI50 (SF-539 CNS) | TGI (SF-539 CNS) | GI50 (SK-MEL-2 melanoma) | TGI (SK-MEL-2 melanoma) | TGI (EKVX NSCLC) | TGI (RXF 393 renal) | GI50 (RXF 393 renal) | GI50 (EKVX NSCLC)
O=C(Nc1cccc(C(F)(F)F)c1)Nc1ccc(OCc2nnc(-c3ccccc3)o2)c(F)c1 | 6.18 µM | 22.4 µM | 2.47 µM | 10.6 µM | 2.58 µM | 6.4 µM | 5.08 µM | 58.5 µM | 5.5 µM | 26.6 µM | 2.01 µM | 13.7 µM | 5.1 µM | 23.2 µM | 7.16 µM | 25.8 µM | – | – | – | –
NC1CC(n2ccc(=O)[nH]c2=O)OC1C(O)CO (configuration not stated) | – | > 100 µM | – | > 100 µM | – | > 100 µM | – | > 100 µM | – | > 100 µM | – | – | – | > 100 µM | – | > 100 µM | > 100 µM | > 100 µM | – | –
O=[N+]([O-])c1cccc(C2=NOC3CCCC23)c1 (configuration not stated) | – | > 100 µM | – | > 100 µM | – | > 100 µM | – | > 100 µM | – | > 100 µM | – | – | – | > 100 µM | – | > 100 µM | > 100 µM | – | – | –
CS(=O)(=O)Nc1ccc(Nc2c3ccccc3nc3cc(Cl)ccc23)cc1 | 0.857 µM | 15.6 µM | 1.51 µM | 15.6 µM | 0.843 µM | 24.6 µM | 2.57 µM | 14.1 µM | 1.62 µM | 19 µM | 2.47 µM | 19.4 µM | 1.18 µM | 13.5 µM | 9.16 µM | 22.7 µM | – | 10.6 µM | 1.77 µM | –
O=C(/C=C/c1ccc(OCC(=O)N2CCN(c3ccccc3)CC2)cc1)c1ccccc1 | – | > 57.9 µM | – | > 100 µM | – | 30.8 µM | – | > 100 µM | – | > 100 µM | – | – | – | 46.8 µM | – | > 60.4 µM | 98.9 µM | 51.6 µM | – | –
Cc1c(C(=O)C/C(=N/NC(=O)CC#N)C(N)=O)[n+](=O)c2ccccc2n1[O-] | – | > 100 µM | – | > 100 µM | – | 69.4 µM | – | > 100 µM | – | 87.5 µM | – | – | – | > 100 µM | – | > 100 µM | > 100 µM | > 100 µM | – | –
Cn1nc(-c2ccccc2)c(C(=O)/C=C/c2ccccc2)c(N2CCCC2)c1=O | – | 33.4 µM | – | 30 µM | – | 22.7 µM | – | 26.9 µM | – | 55.7 µM | – | – | – | 26.3 µM | – | – | 53.5 µM | 23.9 µM | – | –
CN(C)c1ccc(/C=C2\Cc3ccccc3C2=O)cc1Br | – | > 100 µM | – | > 100 µM | – | – | – | > 100 µM | – | > 100 µM | – | – | – | – | – | > 100 µM | > 100 µM | – | – | –
NC1=NN(c2ccccc2)C(=O)C1/C(=N\NC(=O)c1cc2ccccc2cc1O)C(=O)Nc1ccc(Cl)cc1 (configuration not stated) | – | > 100 µM | – | 49.7 µM | – | 14.7 µM | – | > 100 µM | – | 80.9 µM | – | – | – | 69.3 µM | – | > 100 µM | 62.9 µM | – | – | –
CC1=CC(=O)N2[C@H](OC[C@@H]2C(C)C)O1 | – | > 100 µM | – | > 100 µM | – | > 100 µM | – | > 100 µM | – | > 100 µM | – | – | – | > 100 µM | – | > 100 µM | – | > 100 µM | – | –
O=c1cccccc1[O-].O=c1cccccc1[O-].O=c1cccccc1[O-].[Dy+3] | – | > 100 µM | – | – | – | 54.3 µM | – | > 100 µM | – | > 100 µM | – | – | 17.9 µM | 78 µM | – | > 100 µM | > 100 µM | 79 µM | – | –
O=C(CO[N+](=O)[O-])OCC(=O)c1ccccc1 | – | > 100 µM | – | > 100 µM | – | > 100 µM | – | > 100 µM | – | > 100 µM | – | – | – | > 100 µM | – | > 100 µM | > 100 µM | > 100 µM | – | –
CC(C)=NO.CC(C)=NO.CC(C)=NO.CC(C)=NO.[Ti] | > 100 µM | > 100 µM | > 100 µM | > 100 µM | > 100 µM | > 100 µM | > 100 µM | > 100 µM | > 100 µM | > 100 µM | – | – | > 100 µM | > 100 µM | > 100 µM | > 100 µM | > 100 µM | > 100 µM | > 100 µM | > 100 µM
c1csc(-c2[nH]nc3c2CCc2ccccc2-3)c1 | 21.3 µM | 51 µM | 0.766 µM | 8.17 µM | 20.5 µM | 47.3 µM | 15.6 µM | 42.6 µM | 19.4 µM | 73 µM | 12.5 µM | 37.5 µM | 12.9 µM | 29 µM | 19.7 µM | 37.9 µM | – | 37.4 µM | 16.9 µM | –
O=C1COc2cc3c(cc2N1)SCC(=O)N3 | – | > 100 µM | – | > 100 µM | – | > 100 µM | – | > 100 µM | – | > 100 µM | – | – | – | > 100 µM | – | > 100 µM | > 100 µM | – | – | –
Cc1[nH]n(C(=O)c2ccc(Cl)cc2)c(=O)c1/C=C1\C(O)=CC(=O)c2ccccc21 | – | > 100 µM | – | > 100 µM | – | > 100 µM | – | > 100 µM | – | > 100 µM | – | – | – | > 100 µM | – | > 100 µM | > 100 µM | > 100 µM | – | –
CC(=O)Nc1ccc(C(=O)NN2C(=O)CSC2c2ccccc2)cc1 (configuration not stated) | – | > 100 µM | – | > 100 µM | – | – | – | > 100 µM | – | > 100 µM | – | – | – | > 100 µM | – | > 100 µM | > 100 µM | > 100 µM | – | –
CN(C)C(=O)c1cc2cnc(Nc3ccc(N4CCNCC4)cn3)nc2n1C1CCCC1 | 11.4 µM | 49.8 µM | 1.75 µM | 26.5 µM | 1.74 µM | 28.1 µM | 3.28 µM | > 100 µM | 19.5 µM | > 100 µM | 1.01 µM | 62.9 µM | 15.7 µM | 30.8 µM | 12.2 µM | 30.1 µM | – | – | – | –
CN1C/C(=C\c2ccco2)c2nc(N)nc(-c3ccco3)c2C1 | – | > 100 µM | – | > 100 µM | – | > 100 µM | – | > 100 µM | – | > 100 µM | – | – | – | > 100 µM | – | > 100 µM | > 100 µM | > 100 µM | – | –
CCOC(=O)Oc1ccc2[nH]c3c(C)cc(N)c(C)c3c2c1 | – | > 100 µM | – | > 100 µM | – | > 100 µM | – | > 100 µM | – | – | – | – | – | > 100 µM | – | > 100 µM | > 100 µM | – | – | –
CCOC(=O)C1C(=O)C(=O)N2CCc3c([nH]c4ccccc34)C12 (configuration not stated) | – | > 100 µM | – | > 100 µM | – | > 100 µM | – | > 100 µM | – | > 100 µM | – | – | – | > 100 µM | – | > 100 µM | > 100 µM | > 100 µM | – | –
Nc1ccc2ncc(Nc3ccc(Cl)c(Cl)c3)nc2c1 | – | > 100 µM | – | 32.9 µM | – | 38.3 µM | – | 34.9 µM | – | – | – | – | – | 40.4 µM | – | > 100 µM | 88.9 µM | 55.2 µM | – | –
